Results published in patent publication US5770575A, “Nipecotic acid derivatives as antithrombotic compounds” (Ortho Pharmaceutical Corporation, priority 1995, dated 1998).
“Also recorded” adds a separate entry of the source.

Experiments:
[1] = target: T1, GPIIb/IIIa (Homo sapiens, UniProt P05106+P08514); experiment: In vitro solid phase purified glycoprotein IIb/IIIa binding assay (biotinylated fibrinogen); settings: Table I
T1 sequence (P08514 32-887 limits assumed): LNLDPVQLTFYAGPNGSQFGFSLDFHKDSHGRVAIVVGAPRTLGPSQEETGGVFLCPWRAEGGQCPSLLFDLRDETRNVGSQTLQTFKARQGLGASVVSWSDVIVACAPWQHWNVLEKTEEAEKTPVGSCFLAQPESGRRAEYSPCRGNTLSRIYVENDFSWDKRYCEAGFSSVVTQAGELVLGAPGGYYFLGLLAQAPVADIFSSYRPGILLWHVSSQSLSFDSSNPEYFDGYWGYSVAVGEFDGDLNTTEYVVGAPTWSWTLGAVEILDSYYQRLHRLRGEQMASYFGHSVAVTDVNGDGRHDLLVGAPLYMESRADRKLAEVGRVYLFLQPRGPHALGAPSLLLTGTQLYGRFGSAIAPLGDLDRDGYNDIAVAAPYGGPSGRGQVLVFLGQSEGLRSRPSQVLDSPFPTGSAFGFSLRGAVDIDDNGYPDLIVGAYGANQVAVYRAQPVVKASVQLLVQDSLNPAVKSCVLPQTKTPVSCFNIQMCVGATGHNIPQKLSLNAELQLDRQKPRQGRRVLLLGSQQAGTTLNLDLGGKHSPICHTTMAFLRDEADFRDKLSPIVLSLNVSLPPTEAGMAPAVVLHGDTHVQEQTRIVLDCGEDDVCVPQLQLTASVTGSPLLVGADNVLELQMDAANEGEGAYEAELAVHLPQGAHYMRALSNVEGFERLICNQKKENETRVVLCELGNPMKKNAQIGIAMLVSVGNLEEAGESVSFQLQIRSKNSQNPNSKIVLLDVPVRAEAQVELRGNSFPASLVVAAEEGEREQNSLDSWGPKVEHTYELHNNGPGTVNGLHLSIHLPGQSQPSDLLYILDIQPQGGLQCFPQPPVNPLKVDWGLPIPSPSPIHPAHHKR
T1 sequence (P05106 27-788): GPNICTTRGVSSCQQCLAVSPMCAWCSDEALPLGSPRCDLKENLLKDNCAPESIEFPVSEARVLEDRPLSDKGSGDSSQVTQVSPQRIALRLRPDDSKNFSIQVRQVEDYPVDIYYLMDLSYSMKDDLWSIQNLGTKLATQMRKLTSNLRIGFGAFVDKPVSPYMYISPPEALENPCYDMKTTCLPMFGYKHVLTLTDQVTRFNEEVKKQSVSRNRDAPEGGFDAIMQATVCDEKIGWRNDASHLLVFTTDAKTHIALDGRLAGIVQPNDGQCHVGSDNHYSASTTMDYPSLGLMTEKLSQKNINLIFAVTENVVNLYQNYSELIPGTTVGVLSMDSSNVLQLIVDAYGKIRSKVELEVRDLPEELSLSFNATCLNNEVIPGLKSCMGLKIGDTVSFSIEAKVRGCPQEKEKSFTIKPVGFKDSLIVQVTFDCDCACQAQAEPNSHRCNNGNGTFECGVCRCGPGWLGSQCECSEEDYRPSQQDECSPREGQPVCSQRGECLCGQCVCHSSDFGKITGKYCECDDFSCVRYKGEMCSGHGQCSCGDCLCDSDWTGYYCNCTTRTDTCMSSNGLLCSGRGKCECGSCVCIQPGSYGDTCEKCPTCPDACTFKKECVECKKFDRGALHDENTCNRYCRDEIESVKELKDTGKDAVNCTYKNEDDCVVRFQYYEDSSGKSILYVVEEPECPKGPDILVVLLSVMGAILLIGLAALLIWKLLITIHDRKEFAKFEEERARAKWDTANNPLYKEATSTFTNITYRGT
Excerpt: The compounds of the present invention interrupt binding of fibrinogen to platelet glycoprotein IIb/IIIa (GPIIb/IIIa) and thereby inhibit platelet aggregation. […] Because the final, common pathway in normal platelet aggregation is the binding of fibrinogen to activated, exposed GPIIb/IIIa, inhibition of this binding represents a plausible antithrombotic approach. The receptor is activated by stimuli such as ADP, collagen, and thrombin, exposing binding domains to two different peptide regions of fibrinogen: α-chain Arg-Gly-Asp (RGD) and γ-chain 400-411.
IN VITRO SOLID PHASE PURIFIED GLYCOPROTEIN IIB/IIIA BINDING ASSAY.
The plate is covered and incubated overnight at 4° C. The GPIIb/IIa solution is discarded and 150 μl of 5% BSA is added and incubated at RT for 1-3 h. The plate is washed extensively with modified Tyrodes buffer. Biotinylated fibrinogen (25 μl/well) at 2× final concentration is added to the wells that contain the test compounds (25 μl/well) at 2× final concentration. The plate is covered and incubated at RT for 2-4 h. Twenty minutes prior to incubation completion, one drop of Reagent A (Vecta Stain ABC Horse Radish Peroxidase kit, Vector Laboratories, Inc.) and one drop Reagent B are added with mixing to 5 mL modified Tyrodes buffer mix and let stand. The ligand solution is discarded and the plate washed (5×200 μl/well) with modified Tyrodes buffer. Vecta Stain HRP-Biotin-Avidin reagent (50 μl/well, as prepared above) is added and incubated at RT for 15 min. The Vecta Stain solution is discarded and the wells washed (5×200 μl/well) with modified Tyrodes buffer. […] The absorbance is read at 490 nm.

[2] = tested on: gel-filtered platelets; experiment: In vitro inhibition of thrombin-induced gel-filtered platelet aggregation assay; format: cell-based; settings: *Indicates IC50, read-out: Pl. Aggr. IC50
Procedure: IN VITRO INHIBITION OF THROMBIN-INDUCED GEL-FILTERED PLATELET AGGREGATION ASSAY.
The percentage of platelet aggregation is calculated as an increase in light transmission of compound treated platelet concentrate vs. control treated platelet concentrate. Blood is obtained from drug free, normal donors into tubes containing 0.13M sodium citrate. Platelet rich plasma (PRP) is collected by centrifugation of whole blood at 200×g for 10 min at 25° C. The PRP (5 mL) is gel filtered through Sepharose 2B (bed volume 50 mL), and the platelet count is adjusted to 2×10^7platelets per sample. The following constituents are added to a siliconized cuvette: concentrated platelet filtrate and Tyrode's buffer (0.1 4M NaCl, 0.0027M KCl, 0.01 2M NaHCO3, 0.76 mM Na2 HPO4, 0.0055M glucose, 2 mg/mL BSA and 5.0 mM HEPES @ pH 7.4) in an amount equal to 350 μl, 50 μl of 20 mM calcium and 50 μl of the test compound. Aggregation is monitored in a BIODATA aggregometerforthe 3 min following the addition of agonist (thrombin 50 μl of 1 unit/mL).

[3] = tested on: platelet aggregation; experiment: Ex vivo dog study: platelet aggregation and ATP release in whole blood and PRP; design: species or system mongrel dogs
Procedure: Adult mongrel dogs (8-13 kg) were anesthetized with sodium pentobarbital (35 mg/kg, i.v.) and artificially respired. Arterial blood pressure and heart rate were measured using a Millar catheter-tip pressure transducer inserted in a femoral artery. Another Millar transducer was placed in the left ventricle (LV) via a carotid artery to measure LV end diastolic pressure and indices of myocardial contractility. A lead II electrocardiogram was recorded from limb electrodes. Catheters were placed in a femoral artery and vein to sample blood and infuse drugs, respectively. Responses were continuously monitored using a Modular Instruments data aquisition system.
(§1) Arterial blood samples (5-9 ml) were withdrawn into tubes containing 3.8% sodium citrate to prepare platelet rich plasma (PRP) and to determine effects on coagulation parameters: prothrombin time (PT) and activated partial thromboplastin time (APTT). Separate blood samples (1.5 ml) were withdrawn in EDTA to determine hematocrit and cell counts (platelets, RBC's and white cells). Template bleeding times were obtained from the buccal surface using a symplate incision devise and Whatman filter paper.
(§2) Aggregation of PRP was performed using a BioData aggregometer. Aggregation of whole blood used a Chronolog impedance aggregometer. PT and APTT were determined on either a BioData or ACL 3000+ coagulation analyser. Cells were counted with a Sysmex K-1000.
(§3) Compound 17 was solubilized in a small volume of dimethylformamide (DMF) and diluted with saline to a final concentration of 10% DMF. Compound 17 was administered by the intravenous route with a Harvard infusion pump. Doses of 0.3, 1, 3, and 10 mg/kg were given in a cumulative fashion to each animal. Each dose was administered over a 15 min interval at a constant rate of 0.33 ml/min. Data were obtained after each dose and 30 and 60 min following the end of drug administration.

[4] = design: species or system mongrel dogs; settings: dog, in vivo, iv
Procedure: as §1, §2, §3

**Q.** For O=C(O)CCNC(=O)C1CCCN(C(=O)CCC2CCNCC2)C1 (stereo not drawn) [Compound 17, N-[3-(4-Piperidinepropionyl)]-Nip-β-Ala-OH], which IC50 [1] is on record?
**A.** 3 nM

**Q.** What about the IC50 [2] of the same compound?
**A.** 130 nM

**Q.** And the “platelet function began to recover” value ([3]; PRP and whole blood, post treatment)?
**A.** 30 to 60 min

**Q.** What about the “Gamma thrombin induced aggregation of PRP” value ([3]; PRP, doses of 3.0 mg/kg and above, iv) of the same compound?
**A.** inhibited at doses of 3.0 mg/kg and above

**Q.** And the “collagen stimulated platelet aggregation, PRP” value ([3]; PRP, marked activity at 0.3 mg/kg iv)?
**A.** marked activity at 0.3 mg/kg

**Q.** What about the “duration of drug action / antiaggregatory effect” value ([3]; iv) of the same compound?
**A.** relatively short duration of drug action

**Q.** And the “ex vivo platelet aggregation responses” value ([3]; iv, 0.3-10 mg/kg cumulative)?
**A.** marked inhibition of ex vivo platelet aggregation responses; also recorded: broadly effective inhibitor of platelet aggregation ex vivo

**Q.** What about the “collagen stimulated platelet ATP release” value ([3]; whole blood, 10 mg/kg iv) of the same compound?
**A.** marked inhibition

**Q.** What about the “collagen-stimulated aggregation, whole blood” value ([3]; whole blood, doses of 0.3-10 mg/kg iv) of the same compound?
**A.** inhibited

**Q.** And the “bleeding time at the higher doses” value [4]?
**A.** increases in bleeding time at the higher doses

**Q.** And the “coagulation (PT or APTT)” value [4]?
**A.** No effects on coagulation

**Q.** What about the “platelet, white and RBC counts” value [4] of the same compound?
**A.** unchanged at any dose
